The term IC50 denotes the concentration needed to halve the response being measured. The low end stands for greater potency, the high end for weaker potency. The term inhibition denotes how much of the control response was suppressed. The low end stands for a weak effect, the high end for a strong effect.

Holding throughout (format): cell-based, human
One data set concerns HCT116. The data set can be described thus: Cell viability assay (MTT), Example 32. The conditions noted are these: Homo sapiens, HCT-116, 144 h; day 6, 10% FBS. How it is done:
FIG. 7: Antiproliferative effect of compounds on HCT116 (top) and MDA-MB-231 (bottom) cell lines measured by MTT viability assay. 2.5 10^3 (HCT116) or 7.5 10^3 (MDA-MB-231) cells were seeded in 48-well plates in growth medium containing 10% FBS, with or without various concentrations of test compounds. Cell cultures were fed every 3 days with the appropriate media. Cell viability was determined on day 6. Data were analyzed and IC50s were calculated from the dose-response curves using GraphPad Prism.
In order to determine one compound effect on cell viability, microculture tetrazolium assay (MTT) was performed as described by Carmichael et al., (1996) with modifications. Four human tumoral cell lines, namely HCT116 colon adenocarcinoma, H460 lung carcinoma, MCF-7 and MDA-MB-231 breast carcinoma cell lines, and 3 immortalized but non tumorigenic cell lines, namely NIH3T3 mouse fibroblasts and human breast-derived MCF10-A and human lung-derived MRC-5 were purchased at ATCC and cultured according to their recommendations. Briefly, 2.5 10^3 to 2 10^4 cells per well were seeded in 48-well plates 24 hours before drug addition. Cells were treated with 0 to 200 μM (11 concentrations) of compound solubilized in DMSO, adjusting the final concentration of DMSO to 1% in the well. Six days after treatment, the medium was replaced by PBS containing 0.5 mg/ml MTT (Sigma) and cells were incubated for 1-3 hours at 37° C. before solubilization of formazan crystals in 100% DMSO. Absorbance was measured using a spectrophotometer at a wavelength of 550 nm. Data was analyzed using the GraphPad Prism software (GraphPad Software, Inc., San Diego, USA), and IC50 (dose leading to 50% cell death) was calculated from the dose-response curves.

Another data set has as its system HCT116 cells. The data set can be described thus: Anchorage-independent cell growth assay in soft agar, Example 32. The procedure: FIG. 8: Effect of the treatment of HCT116 cells with the compounds on the size of the clones grown in soft agar. 5 10^3 cells were seeded in 24-well plates in 0.3% agar-containing medium supplemented with the designated amount of compounds. After 7 days of incubation at 37° C., pictures were taken of each well and were analyzed using the ImageJ image analysis software. In particular, clone size and number were calculated. The data were analyzed using GraphPad Prism, and IC50 was calculated.
In order to evaluate the effect of one compound on the capacity of tumour cells to grow without anchorage, HCT116 cells were seeded in soft agar. In contrast to microplate assays which average the drug's effects over an entire cell population, clonogenic assays offer the possibility of distinguishing cytotoxic agents (i.e., decreased colony number) from cytostatic agents (i.e., decreased colony size without decreased colony number; Murphy M. J. et al., 1996).
Briefly, 5 10^3 HCT116 cells were resuspended in 300 pi of complete medium containing 0.3% soft-agar (Difco) and different concentrations of compound (8 concentrations ranging from 0 to 30 μM). Cells were then poured on a solidified layer of medium containing 0.5% of soft agar plus the compound at the same concentration as in the upper layer. Cells were incubated for 7 days' at 37° C. before pictures of each well were taken using a phase contrast microscope (Nikon) and a digital camera (Nikon Coolpix 990). Pictures were subsequently analyzed using a free image analysis software from the NIH (ImageJ) allowing to determine clones size and number.
Data was analyzed using the GraphPad Prism software, and IC50 (dose leading to a 50% decrease of clone size or number) was calculated from dose-response curves. The ratio IC50 clone size/IC50 clone number was then calculated. When this ratio is equal to 1 (IC50 size=IC50 number), the compound is referred to as “cytotoxic”. When the ratio is close to 0 (IC50 size<<IC50 number), the compound is referred to as “cytostatic” (FIG. 6).

Another data set has as its system MDA-MB-231 cells. The data set can be described thus: Migration assay (Fluoroblock inserts), Example 32. The settings on record: 16 hours. The procedure:
FIG. 10: Migration of MDA-MB-231 cells in the presence of various concentrations of L651582, and EHT 0823. 5 10^4 MDA-MB-231 cells, resuspended in culture medium with or without Fetal Bovine Serum (FBS), were seeded in the upper Boyden blind well on top of 8 μm pore-sized filters. The ability of cells to migrate through the filter was assayed in the absence or presence of FBS in the lower Boyden well. After incubation at 37° C. for 16 hours, the medium was removed and replaced with calcein containing medium. After labelling, cells were washed and resuspended in HBSS and fluorescence was read in a fluoroskan. Fluorescence values were normalized against the fluorescence obtained for the 1% DMSO control. The data plotted are the means±SEM for 2 wells under the different conditions.
An essential characteristic of malignant cells is their ability to migrate, invade host tissues and to produce metastases. In order to evaluate the capacity of one compound to affect the ability of tumoral cells to migrate, migration assays were performed using highly invasive tumoral cells MDA-MB-231. This assay was performed using Falcon HTS Fluoroblock inserts. Culture medium containing Fetal Bovine Serum (FBS; which is used as a chemoattractant) was added to the plate wells and 2 10^4 MDA-MB-231 cells resuspended in medium without FBS and with 0.1% BSA were added to each insert well. The compound of interest was added to the medium in both the upper and the lower chambers. Plate were incubated for 16 hours at 37° C. Following incubation, the medium was removed from the upper chamber and the entire insert plate was transferred to a second 24-well plate containing 4 μg/ml Calcein-AM in medium containing 0.1% BSA. The plates were incubated for one hour at 37° C., rinsed with Hanks Buffered Saline (HBSS). Fluorescence data were collected using Fluoroskan Ascent FL fluorescence plate reader at an excitation wavelength (Ex) of 485 nm and emission wavelength (Em) of 517 nm. Only those labelled cells that passed through the Matrigel layer and the membrane were detected. Data were analyzed using the GraphPad Prism software.

Molecules are shown by their SMILES.

In the data set on HCT116, `O=c1cc(COC2CCCCO2)occ1OCCCCCn1ccc2cc(Cl)ccc21` (centres unmarked) [EHT 0823, 5-[5-(5-Chloro-indol-1-yl)-pentyloxy]-2-(tetrahydro-pyran-2-yloxymethyl)-4H-pyran-4-one] displayed an IC50 of 1.5 to 4 µM. Moreover, the “IC50 anchorage-independent growth of HCT116 (clone size) in soft agar” value in the data set with HCT116 cells (7 days) is recorded as “micromolar range”. Moreover, the “inhibition of migration of MDA-MB-231 cells” value with MDA-MB-231 cells (10 μM compound) is “No significant inhibition”. The same compound registered an inhibition at 50 µM in the data set with MDA-MB-231 cells (Homo sapiens, MDA-MB-231, 50 μM compound) of 90%.

On to `NC(=O)c1nnn(Cc2cc(Cl)c(C(=O)c3ccc(Cl)cc3)c(Cl)c2)c1N` [L651582, carboxyamidotriazole, reference compound], for which the “mode of action (cytotoxic vs cytostatic)” value in the data set on HCT116 cells (HCT116 soft agar) was “cytostatic”. The “ratio IC50 clone size/IC50 clone number” value in the data set with HCT116 cells (HCT116 soft agar, 7 days) is on record as 0.3. Further, the “inhibition of migration of MDA-MB-231 cells” value in the data set on MDA-MB-231 cells (50 μM compound) was “Complete inhibition”. For the same compound, the inhibition at 10 µM in the data set on MDA-MB-231 cells (Homo sapiens, MDA-MB-231, 10 μM compound) was around 40%.

These data come from patent publication US20050054629A1, “Compounds and methods of treating cell proliferative diseases” (priority 2002, published 2005).
